# Measurements taken from patent publication US20110039947A1, “SURFACE-MODIFIED NANOPARTICLES” (3M Innovative Properties Company, priority 2008, published 2011).
# Assay: Pharmaceutical performance: Aerolizer DPI with Next Generation Pharmaceutical Impactor (NGI)
# Type: physicochemical
# Conditions: nominally 2 mg powder, NGI at 60 lpm for 4 seconds, respirable limit 4.5 micrometers
# Protocol: Samples of micronized lactose and micronised budesonide powder were tested in addition to testing samples of nanoparticle-modified lactose and nanoparticle-modified budesonide powders. The NGI was coupled with a USP throat (United States Pharmacopeia, USP 24 <601>Aerosols, Metered Dose Inhalers, and Dry Powder Inhalers) and operated at a volumetric flow rate of 60 liters per minute (lpm) for a collection time of four seconds. A suitable coupler was affixed to the USP throat to provide an air-tight seal between the DPI device and the throat. For all testing, the stage cups of the NGI were coated with a surfactant to prevent particle bounce and re-entrainment. The amount of lactose or budesonide collected on each component of the NGI testing apparatus was determined by rinsing the component with a measured volume of an appropriate solvent and subjecting the rinsed material to high pressure liquid chromatography (HPLC) analysis with charged aerosol detection to determine lactose or budesonide concentration. Data that was returned from HPLC analysis was analyzed to determine the average amount of drug collected on the DPI and capsule, the USP throat, and on each component of the NGI per delivered dose. Using the individual component values, the respirable fraction and delivery efficiency were calculated for each powder sample. […]
structure (smiles),measurement,value
"O.OC[C@H]1O[C@@H](O[C@H]2[C@H](O)[C@@H](O)[C@@H](O)O[C@@H]2CO)[C@H](O)[C@@H](O)[C@H]1O [Comparative Example C4, α-Lactose monohydrate]",% Delivery Efficiency,34%
same,% Respirable Fraction,63%
